Experimental data: PMC9252919, “Controlled masking and targeted release of redox-cycling ortho-quinones via a C–C bond-cleaving 1,6-elimination” (Nature Chemistry, 2022)
Read-outs that look alike come from different tables or passages of the source. One block for each compound: values may come before it.

Experiments:
ovine blood = assay: Methaemoglobin analysis in ovine blood; parameters: species or system sheep; settings: in vitro ovine blood model, 1 h incubation
Method: Defibrinated Oxoid sheep’s blood (ThermoScientific) was diluted to a 5% v/v suspension in PBS pH 7.4. In a 96-well microtitre plate, 150 µl of blood suspension was added to 50 µl of serially diluted compound in PBS containing a 4× stock of each compound of interest. Serial dilution of compounds from DMSO stocks into PBS was performed to achieve an in-plate DMSO concentration of 0.1%. PBS buffer alone was used as a negative control. The plate was incubated for the specified time at 37 °C. The plate was then centrifuged at 3,500 r.p.m. for 5 min. The supernatant was removed and cells lysed by resuspension in 100 µl of a solution of Triton-X-100 (1%) in PBS. Following this, 80 µl of lysed cell contents were transferred to a second microtitre plate for ultraviolet measurement. Ultraviolet absorbance was measured immediately at 630 nm (MiniMax i3x Imager, Molecular Devices). Methaemoglobin increase was determined by A630−A6300/A6300×100 , where A630 is the absorbance of the test well at 630 nm, and A6300 is the absorbance of the negative control at 630 nm.

recombinant human 5-LO = target: T1, recombinant human 5-LO (Homo sapiens, UniProt P09917); assay: Cell-free activity assay for recombinant human 5-LO; assay type: biochemical
T1 construct: made in house; host or cells: Escherichia coli BL21
T1 sequence (P09917 1-674): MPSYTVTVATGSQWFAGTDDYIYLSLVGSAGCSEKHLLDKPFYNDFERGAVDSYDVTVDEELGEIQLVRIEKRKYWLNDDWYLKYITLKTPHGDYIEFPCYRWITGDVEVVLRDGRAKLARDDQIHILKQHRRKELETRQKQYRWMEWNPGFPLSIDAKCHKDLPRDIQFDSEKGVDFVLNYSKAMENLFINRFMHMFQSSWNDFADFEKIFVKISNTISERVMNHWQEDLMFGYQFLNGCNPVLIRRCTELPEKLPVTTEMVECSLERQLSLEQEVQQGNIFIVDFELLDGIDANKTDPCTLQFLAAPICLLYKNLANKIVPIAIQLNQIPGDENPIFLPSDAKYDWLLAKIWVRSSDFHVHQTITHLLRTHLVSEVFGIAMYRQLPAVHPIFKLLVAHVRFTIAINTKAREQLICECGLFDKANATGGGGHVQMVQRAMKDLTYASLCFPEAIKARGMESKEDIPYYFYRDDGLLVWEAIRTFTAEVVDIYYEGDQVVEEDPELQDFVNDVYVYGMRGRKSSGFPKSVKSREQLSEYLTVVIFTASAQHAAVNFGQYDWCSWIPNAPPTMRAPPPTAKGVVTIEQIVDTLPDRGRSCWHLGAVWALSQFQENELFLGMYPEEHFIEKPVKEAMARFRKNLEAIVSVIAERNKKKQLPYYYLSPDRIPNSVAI
Method: Escherichia coli (BL21) was transformed with pT3-5-LO plasmid, and recombinant 5-LO protein was expressed at 30 °C as described. Cells were lysed in 50 mM triethanolamine/HCl pH 8.0, 5 mM EDTA, 1 mM phenylmethanesulfonyl fluoride, soybean trypsin inhibitor (60 μg ml^−1) and lysozyme (1 mg ml^−1), homogenized by sonication (3 × 15 s) and centrifuged at 40,000g for 20 min at 4 °C. The 40,000g supernatant (S40) was applied to an ATP–agarose column to partially purify 5-LO as described. Aliquots of semipurified 5-LO (0.5 μg) were diluted with 1 ml ice-cold PBS containing 1 mM EDTA. Samples were preincubated with the test compound or vehicle (0.1% DMSO) with or without 1 mM DTT, as indicated. After 10 min at 4 °C, samples were prewarmed for 30 s at 37 °C, and 2 mM CaCl2 plus 20 μM arachidonic acid was added to start the formation of 5-LO products. After 10 min, the reaction was stopped by addition of 1 volume of ice-cold methanol, and the formed 5-LO products were analysed by reverse-phase HPLC as described. 5-LO products include the all-trans isomers of LTB4 (trLTB4 isomers) and 5(S)-hydroperoxy-6-trans-8,11,14-cis-eicosatetraenoic acid and its corresponding alcohol 5(S)-hydroxy-6-trans-8,11,14-cis-eicosatetraenoic acid.

[1] = In vitro redox-cycling phenol red/horseradish peroxidase reporter assay; settings: phenol red/HRP with DTT, up to 25 μM
Method: The in vitro redox-cycling capability of compounds was assessed by phenol red/horseradish peroxidase (HRP) assay by adaption of a previously described protocol. Briefly, stocks were prepared as follows: (1) DTT to a concentration of […] in PBS pH 7.4 buffer; (2) compound stocks in PBS pH 7.4 buffer to 3× the desired concentration by 1,000× dilution of DMSO stocks; (3) a stock of phenol red/HRP detection reagent containing 300 µg ml^−1 phenol red and 180 µg ml^−1 HRP enzyme in PBS pH 7.4 buffer; (4) a stock of 1 M NaOH in water; (5) a stock of 100 µM H2O2 in PBS prepared by addition of a 30% solution of H2O2 in water into 1,000 µl of PBS. Into each well of a 96-well clear flat-bottomed plate was then added 40 µl of compound stock in PBS followed by 40 µl of DTT stock, followed immediately by 40 µl of phenol red/HRP reagent. A positive control with 100 µM H2O2 added in place of compound was included. The plate was incubated in the dark at room temperature for 15 min. Following this, 20 µl of 1 M NaOH was added to each well to terminate the reaction. Absorbance was immediately measured at 610 nm (MiniMax i3x Imager, Molecular Devices). Absorbance of treated wells was normalized to control wells treated with PBS only (zero redox cycling).

[2] = pH-rate aqueous kinetic analysis of fragmentation (HPLC); assay type: physicochemical; settings: for kobs of elimination at pH 3: pH 3, 37 °C; for kobs of elimination at pH 3 / kobs of elimination at pH 6: citrate-phosphate buffer; for kobs of elimination at pH 6: pH 6, 37 °C
Method: pH-rate analysis was performed by adaption of the PenG assay. To obtain deprotected para-aminobenzyl ketol species, 2-phenylacetyl protected ketol was dissolved in PBS with 33% DMF to a concentration of 3.3 mM. Then 20 µl of a stock solution of PenG was added to 600 µl of this stock and incubated for 20 min at 37 °C, after which 20 µl of a 100 mM stock of internal standard in DMSO was added. Reactions were then set up immediately. For a reaction, 10 µl of the aminobenzyl ketol/standard stock was added to 190 µl of citrate–phosphate buffer at the specified pH to obtain an aqueous solution containing 1.8% DMSO. Test samples were incubated at 37 °C with shaking. At the recorded time points, 20 µl aliquots of the reactions were analysed by HPLC (254 nm, ThermoFisher U3000). HPLC conditions: column Phenomenex Kinetex C18 5 µm, 50 × 4.6 mm, 100 Å; solvent system A = H2O + 0.1% formic acid, B = acetonitrile + 0.1% formic acid; flow, 1 ml min^−1. Gradient for assay with PAB-PhQ 7: t = 0–1 min 0% B, t = 1–10 min 0–100% B, t = 10–11 min 0% B. Gradient for assay with PAB-BL 10 and PAB-DN 18: t = 0–1 min 0% B, t = 1–10 min 0–40% B, t = 10–16 min 40–50% B, t = 16.1 min 100% B, t = 16.1–18 min 100% B, t = 18–20 min 0% B. Values described represent peak area (mAU × min) divided by peak area of internal standard. Where necessary, peaks were deconvoluted using Origin fitting software. Recorded values are averages of three independent reactions and error bars display standard errors of the mean. Values were fitted using GraphPad Prism software. Rate and half-life measurements were calculated based on consumption of the para-aminobenzyl ketol species.

[3] = Penicillin-G-amidase-mediated kinetic analysis of elimination at physiological pH (HPLC); assay type: physicochemical; settings: pH 7.4, 37 °C
Method: Stocks of 2-phenylacetyl-para-aminobenzyl ketol were made up in DMF at a concentration of 10 mM. For a reaction, 17.5 µl of ketol stock was added to 17.5 µl of a 10 mM stock of internal standard in DMF and 310 µl of PBS at pH 7.4. To initiate a reaction, 5 µl of a suspension of penicillin G amidase (PenG, Sigma-Aldrich enzyme 76427, 5–10 U mg^−1) was added. In control samples 5 µl of PBS was added in place of the enzyme. Test and control samples were then incubated at 37 °C with shaking. At the recorded time points, 20 µl aliquots of the reactions were analysed by HPLC (254 nm, ThermoFisher U3000). HPLC column: Phenomenex Kinetex C18, 5 µm, 50 × 4.6 mm, 100 Å; flow, 1 ml min^−1. Gradient and solvent system for assay with 2-phenylacetyl-PAB-PhQ 21: A = H2O, B = acetonitrile, t = 0–1 min 0% B, t = 1–10 min 0–100% B, t = 10–11 min 0% B. Gradient and solvent system for assay with 2-phenylacetyl-PAB-BL 22 and 2-phenylacetyl-PAB-DN 23: A = H2O + 0.1% formic acid, B = acetonitrile + 0.1% formic acid, t = 0–1 min 0% B, t = 1–10 min 0–40% B, t = 10–16 min 40–50% B, t = 16.1 min 100% B, t = 16.1–18 min 100% B, t = 18–20 min 0% B. Peaks were identified by LC–MS analysis and comparison with pure compounds. Values described represent peak area (mAU × min) divided by peak area of internal standard. Recorded values are averages of three independent reactions and error bars display standard errors of the mean. Fitting was performed using GraphPad Prism 8 software. Rate and half-life measurements were calculated by consumption of intermediate para-aminobenzyl ketol and formation of product quinone.

[4] = 1H NMR kinetic analysis of elimination of PAB-PhQ in MeOD; assay type: physicochemical
Method: Kinetics of the release of PhQ 4 from PAB-PhQ 7 were monitored by ^1H NMR at 25 °C. Analysis was performed in MeOD due to poor solubility of the compound in H2O. To form the active eliminating species, Boc-PAB-PhQ 6 was dissolved in dichloromethane/trifluoroacetic acid 4:1 at 0 °C and stirred for 30 min, upon which the reaction appeared complete by TLC. Product 7 was dried in vacuo before being dissolved in MeOD. The basicity of the solution was altered by addition of triethylamine (drops). pH was estimated using pH paper. pH values are only indicative because analysis is performed in MeOD. Elimination rates were determined from the aromatic region. Kinetics were measured by monitoring the integral of one peak, normalized to the number of protons present (that is, the integral of 1H), divided by the total integral of the aromatic region (δ = 6.2–8.6 ppm, that is, the integral of 12 H). Analysis was performed using Mestrenova v.14.2.0 processing software and rate constants were calculated using GraphPad Prism v.8.0 software.

AML cell line MOLM-13 = assay: Viability assay with small-molecule prodrugs, MOLM-13; assay type: cell-based; settings: 5 µM, 24 h
Method: For assays assessing cytotoxicity of β-lapachone versus small-molecule prodrugs, antibodies and ADCs, suspension cells were plated into 24-well plates at a density of 2.5 × 10^5 cells ml^−1 in 240 µl. Stocks of ADC or antibody in PBS were normalized to 12.5 µM. Serial dilutions of compound were made up in PBS. Then, 60 µl of each stock of either PBS or compound in PBS was added to the cells to achieve the desired final concentration. After the specified incubation time, toxicity was assessed by counting of live cells using the trypan blue exclusion method with a Countess II Automated Cell Counter (ThermoFisher Scientific) according to the manufacturer’s instructions. Cell viability was determined by dividing the average live cell number of treated wells by the average live cell number for control wells treated with PBS only. IC50 values were calculated using GraphPad Prism software. Note: for the assay performed over 96 h, 5% human serum was added to media instead of 10% fetal bovine serum, to limit non-specific antibody internalisation. This had little effect on ADC toxicity.

[5] = 25 °C, moderately acidic methanolic solution

kobs, elimination of 7 ([3]; 7 generated enzymatically from 21): 9.72 ± 2.88 × 10^–6 s^–1 | pH at which elimination rate peaks ([2]; 37 °C): 5–6 | kobs of elimination at pH 6 [2]: 1.7 ± 0.3 × 10^–5 s^–1 | kobs, rate of consumption of 7 [4, 5]: 6.18 ± 0.12 × 10^–5 s^–1 | kobs, rate of formation of product 4 from 7 [4, 5]: 6.55 ± 0.22 × 10^–5 s^–1 | time to complete release of 4 from 7 [4, 5]: ≤ 20 h | completeness of release of 4 from 7 ([4]; basic conditions): not complete after 40 h | kobs, appearance of 4 from 7 ([4]; basic conditions, MeOD with triethylamine): 1.16 ± 0.18 × 10^–6 s^–1
Compound: Nc1ccc(CC2(O)C(=O)c3ccccc3-c3ccccc32)cc1 (stereo not drawn) [Compound 7, para-aminobenzyl phenanthrene-ketol]

kobs, formation of PhQ 4 following addition of penicillin G amidase to 21 [3]: 1.15 ± 0.66 × 10^–5 s^–1 | stability without added enzyme ([3]; no penicillin G amidase): stable
Compound: 2-phenylacetyl-PAB-PhQ [Compound 21]

pH at which elimination rate peaks ([2]; 37 °C): 3 | kobs of elimination at pH 3 [2]: 1.1 ± 0.1 × 10^–5 s^–1 | kobs of elimination at pH 6 [2]: 2.1 ± 0.8 × 10^–7 s^–1 | elimination resulting in formation of 1 ([2]; pH ≥6, within 72 h, 37 °C): Negligible
Compound: CC1(C)CCC2=C(O1)c1ccccc1C(O)(Cc1ccc(N)cc1)C2=O (stereo not drawn) [Compound 10]

Further lines, the compound ahead of its results:

Compound: CC1(C)CCc2c3c(c4ccccc4c2O1)OCCO3 [Compound 25]
methaemoglobin formation (ovine blood): did not occur | IC50 (recombinant human 5-LO; with DTT (1 mM), read-out: IC50, 5-LO inhibition with DTT): 11.5 ± 2.2 µM | IC50 (recombinant human 5-LO; without DTT, read-out: IC50, 5-LO inhibition without DTT): 11.3 ± 1.1 µM | in vitro redox activity [1]: no measurable redox activity

Compound: CC1OC2=C(C(=O)C(O)(Cc3ccc(N)cc3)c3ccccc32)C1(C)C (stereo not drawn) [Compound 18]
kobs of elimination at pH 3 [2]: 9.1 ± 0.2 × 10^–6 s^–1 | kobs of elimination at pH 6 [2]: 7.4 ± 1.1 × 10^–7 s^–1

Compound: CC(=O)Oc1c2c(c3ccccc3c1OC(C)=O)OC(C)(C)CC2 [Compound 29]
toxicity to MOLM-13 at 5 µM (AML cell line MOLM-13): complete cell death
